Measurements published in ChEMBL document CHEMBL5338754, “Identification of Binding Sites in the Nucleotide-Binding Domain of P-Glycoprotein for a Potent and Nontoxic Modulator, the Amine-Containing Monomeric Flavonoid FM04” (J Med Chem, 2023).

Legend:
[1] = target: P-gp (ABCB1) I1115F mutant (Homo sapiens, UniProt P08183, I1115F); experiment: Activation of P-gp ATPase activity in human P-gp I1115F mutant expressed in HEK293FT cell microsomes assessed as fold change of ATPase activity at 20 uM incubated for 1 hr in presence of ATP by Glo-luminescence based microplate reader assay relative to DMSO; set-up: species or system Microsome; settings: read-out: FC
[2] = target: ATP-dependent translocase ABCB1 (Homo sapiens, UniProt P08183, Q1193T); experiment: Negative allosteric modulator activity at human P-gp Q1193T mutant expressed in HEK293FT cells assessed as reversal of P-gp mediated PTX resistance by measuring sensitivity fold change incubated for 5 days by MTS assay; type: cell-based; settings: 120 h, time 5 day
[3] = target: ATP-dependent translocase ABCB1 (Homo sapiens, UniProt P08183, Q1193C); experiment: Activation of P-gp ATPase activity in human P-gp Q1193C mutant expressed in HEK293FT cell microsomes at 20 uM incubated for 1 hr in presence of ATP by Glo-luminescence based microplate reader assay (reference value: 0.45 +/- 0.04 pmol/min/microg); set-up: species or system Microsome
[4] = target: T1, ATP-dependent translocase ABCB1 (Homo sapiens, UniProt P08183, G1114V); experiment: Negative allosteric modulator activity at human P-gp G1114V mutant expressed in HEK293FT cells assessed as increase in intracellular doxorubicin accumulation using doxorubicin as substrate at 1 uM incubated for 150 mins by microplate reader assay (reference value: 102 +/- 2.6 %); type: cell-based; settings: 2.5 h
T1 sequence (P08183 whole entry G1114V): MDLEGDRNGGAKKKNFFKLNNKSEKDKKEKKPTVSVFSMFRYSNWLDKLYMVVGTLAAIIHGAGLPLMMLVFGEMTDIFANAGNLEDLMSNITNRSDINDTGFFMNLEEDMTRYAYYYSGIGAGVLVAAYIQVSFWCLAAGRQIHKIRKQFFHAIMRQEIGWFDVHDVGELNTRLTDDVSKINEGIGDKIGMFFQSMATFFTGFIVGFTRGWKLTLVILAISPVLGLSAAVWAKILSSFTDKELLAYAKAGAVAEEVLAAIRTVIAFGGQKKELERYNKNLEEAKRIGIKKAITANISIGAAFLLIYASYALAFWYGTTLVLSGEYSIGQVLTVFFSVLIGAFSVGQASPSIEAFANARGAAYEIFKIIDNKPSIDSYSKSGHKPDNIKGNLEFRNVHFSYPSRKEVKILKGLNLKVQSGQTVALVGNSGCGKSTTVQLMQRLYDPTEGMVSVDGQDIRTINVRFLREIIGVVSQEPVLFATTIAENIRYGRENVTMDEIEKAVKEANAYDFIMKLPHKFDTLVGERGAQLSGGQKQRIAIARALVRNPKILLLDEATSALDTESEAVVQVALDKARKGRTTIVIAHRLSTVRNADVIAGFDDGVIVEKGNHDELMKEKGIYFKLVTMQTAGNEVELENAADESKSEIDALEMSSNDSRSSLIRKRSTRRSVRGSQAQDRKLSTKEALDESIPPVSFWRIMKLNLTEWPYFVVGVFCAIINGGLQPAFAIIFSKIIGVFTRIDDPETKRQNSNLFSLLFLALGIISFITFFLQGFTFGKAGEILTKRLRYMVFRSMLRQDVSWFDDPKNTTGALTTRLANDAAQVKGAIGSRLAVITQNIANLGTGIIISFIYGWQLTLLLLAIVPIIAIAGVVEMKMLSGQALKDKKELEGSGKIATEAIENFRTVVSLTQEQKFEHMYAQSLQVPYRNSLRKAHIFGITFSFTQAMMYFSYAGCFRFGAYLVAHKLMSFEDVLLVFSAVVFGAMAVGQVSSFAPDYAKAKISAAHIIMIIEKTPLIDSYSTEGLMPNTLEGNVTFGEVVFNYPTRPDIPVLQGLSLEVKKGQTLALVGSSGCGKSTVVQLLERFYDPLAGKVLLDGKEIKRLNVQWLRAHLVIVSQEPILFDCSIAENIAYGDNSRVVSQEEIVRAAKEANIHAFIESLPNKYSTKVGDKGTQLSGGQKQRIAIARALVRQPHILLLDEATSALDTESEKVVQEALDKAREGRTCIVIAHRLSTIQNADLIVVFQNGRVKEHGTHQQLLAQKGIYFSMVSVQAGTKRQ

[5] = target: ATP-dependent translocase ABCB1 (Homo sapiens, UniProt P08183, I1115W); experiment: Negative allosteric modulator activity at human P-gp I1115W mutant expressed in HEK293FT cells assessed as fold change in intracellular doxorubicin accumulation using doxorubicin as substrate at 1 uM incubated for 150 mins by microplate reader assay relative to DMSO; type: cell-based; settings: 2.5 h
[6] = target: ATP-dependent translocase ABCB1 (Homo sapiens, UniProt P08183, C1227A); experiment: Negative allosteric modulator activity at human P-gp C1227A mutant expressed in HEK293FT cells assessed as increase in intracellular doxorubicin accumulation using doxorubicin as substrate at 1 uM incubated for 150 mins by microplate reader assay (reference value: 33.3 +/- 1.3 %); type: cell-based; settings: 2.5 h
ATP-dependent translocase ABCB1 (Homo sapiens, UniProt P08183, C1227A), sequence (P08183 whole entry C1227A): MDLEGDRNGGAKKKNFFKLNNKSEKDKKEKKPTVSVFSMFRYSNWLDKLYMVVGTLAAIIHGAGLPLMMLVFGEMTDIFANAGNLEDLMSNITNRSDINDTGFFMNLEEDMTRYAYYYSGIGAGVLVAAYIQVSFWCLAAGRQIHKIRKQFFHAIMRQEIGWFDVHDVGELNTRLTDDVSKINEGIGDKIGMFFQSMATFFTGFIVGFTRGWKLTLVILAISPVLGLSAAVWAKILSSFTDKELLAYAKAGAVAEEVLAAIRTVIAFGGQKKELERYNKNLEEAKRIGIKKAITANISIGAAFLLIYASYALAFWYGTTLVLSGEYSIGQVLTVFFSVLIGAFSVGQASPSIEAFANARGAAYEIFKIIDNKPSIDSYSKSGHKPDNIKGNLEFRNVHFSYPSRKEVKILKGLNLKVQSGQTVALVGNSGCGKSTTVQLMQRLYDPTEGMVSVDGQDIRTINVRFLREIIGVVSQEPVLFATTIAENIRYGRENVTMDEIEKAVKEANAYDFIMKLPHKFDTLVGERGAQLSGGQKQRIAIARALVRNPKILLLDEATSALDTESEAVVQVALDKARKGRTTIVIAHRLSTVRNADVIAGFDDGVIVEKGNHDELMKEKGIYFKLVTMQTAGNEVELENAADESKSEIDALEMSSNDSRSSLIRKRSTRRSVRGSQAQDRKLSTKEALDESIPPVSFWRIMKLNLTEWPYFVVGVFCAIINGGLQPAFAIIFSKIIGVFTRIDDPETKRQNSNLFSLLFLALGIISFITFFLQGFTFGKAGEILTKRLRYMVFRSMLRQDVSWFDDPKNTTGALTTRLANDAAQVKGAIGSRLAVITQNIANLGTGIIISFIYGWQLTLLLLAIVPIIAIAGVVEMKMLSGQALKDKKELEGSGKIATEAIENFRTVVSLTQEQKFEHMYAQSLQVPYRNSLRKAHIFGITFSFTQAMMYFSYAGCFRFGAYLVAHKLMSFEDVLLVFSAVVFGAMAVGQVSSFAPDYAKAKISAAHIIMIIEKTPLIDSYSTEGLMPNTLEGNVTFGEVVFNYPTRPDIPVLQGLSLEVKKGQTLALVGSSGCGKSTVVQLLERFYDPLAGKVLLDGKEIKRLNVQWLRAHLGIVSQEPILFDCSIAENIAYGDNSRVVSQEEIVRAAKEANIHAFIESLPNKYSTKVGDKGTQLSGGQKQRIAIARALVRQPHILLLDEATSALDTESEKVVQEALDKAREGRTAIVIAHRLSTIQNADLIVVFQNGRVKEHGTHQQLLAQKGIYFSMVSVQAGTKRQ

[7] = target: T2, ATP-dependent translocase ABCB1 (Homo sapiens, UniProt P08183, I1115A); experiment: Negative allosteric modulator activity at human P-gp I1115A mutant expressed in HEK293FT cells assessed as increase in intracellular doxorubicin accumulation using doxorubicin as substrate at 1 uM incubated for 150 mins by microplate reader assay (reference value: 91.6 +/- 4.4 %); type: cell-based; settings: 2.5 h
T2 sequence (P08183 whole entry I1115A): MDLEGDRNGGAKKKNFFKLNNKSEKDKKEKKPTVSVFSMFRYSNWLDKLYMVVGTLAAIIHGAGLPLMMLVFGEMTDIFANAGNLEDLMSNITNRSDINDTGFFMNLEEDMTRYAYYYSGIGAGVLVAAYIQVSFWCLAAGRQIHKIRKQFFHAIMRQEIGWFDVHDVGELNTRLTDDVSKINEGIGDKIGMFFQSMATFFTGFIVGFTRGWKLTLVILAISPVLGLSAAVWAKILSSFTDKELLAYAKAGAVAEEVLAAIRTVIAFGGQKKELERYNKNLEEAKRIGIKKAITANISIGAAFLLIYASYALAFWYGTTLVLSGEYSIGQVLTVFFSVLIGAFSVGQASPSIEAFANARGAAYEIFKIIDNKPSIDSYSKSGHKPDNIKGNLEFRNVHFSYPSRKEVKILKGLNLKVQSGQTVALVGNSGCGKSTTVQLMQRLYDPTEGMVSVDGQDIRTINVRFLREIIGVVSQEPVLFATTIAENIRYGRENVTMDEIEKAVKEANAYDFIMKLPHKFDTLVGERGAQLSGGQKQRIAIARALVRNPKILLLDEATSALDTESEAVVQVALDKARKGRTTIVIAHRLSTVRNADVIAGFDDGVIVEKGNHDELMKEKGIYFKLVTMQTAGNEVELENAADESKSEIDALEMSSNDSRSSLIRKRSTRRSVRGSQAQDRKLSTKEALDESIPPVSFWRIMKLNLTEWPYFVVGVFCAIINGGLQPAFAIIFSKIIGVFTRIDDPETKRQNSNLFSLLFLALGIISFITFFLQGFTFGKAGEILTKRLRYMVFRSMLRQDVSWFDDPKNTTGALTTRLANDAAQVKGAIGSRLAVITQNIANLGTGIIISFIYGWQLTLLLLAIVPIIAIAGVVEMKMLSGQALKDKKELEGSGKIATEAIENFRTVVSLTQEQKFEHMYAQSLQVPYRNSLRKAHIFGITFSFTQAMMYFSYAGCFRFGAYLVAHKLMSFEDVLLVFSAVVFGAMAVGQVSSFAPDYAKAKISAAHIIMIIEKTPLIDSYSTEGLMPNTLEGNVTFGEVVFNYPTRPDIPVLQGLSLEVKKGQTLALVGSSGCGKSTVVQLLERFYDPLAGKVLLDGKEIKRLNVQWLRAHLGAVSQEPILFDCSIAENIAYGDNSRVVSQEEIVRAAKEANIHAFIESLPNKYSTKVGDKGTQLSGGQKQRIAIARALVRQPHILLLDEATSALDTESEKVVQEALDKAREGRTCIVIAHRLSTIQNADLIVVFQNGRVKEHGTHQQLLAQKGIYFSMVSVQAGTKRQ

[8] = target: P-gp (ABCB1) Q1193A mutant (Homo sapiens, UniProt P08183, Q1193A); experiment: Activation of P-gp ATPase activity in human P-gp Q1193A mutant expressed in HEK293FT cell microsomes assessed as fold change of ATPase activity at 20 uM incubated for 1 hr in presence of ATP by Glo-luminescence based microplate reader assay relative to DMSO; set-up: species or system Microsome; settings: read-out: FC
[9] = target: ATP-dependent translocase ABCB1 (Homo sapiens, UniProt P08183, Q1193N); experiment: Activation of P-gp ATPase activity in human P-gp Q1193N mutant expressed in HEK293FT cell microsomes at 20 uM incubated for 1 hr in presence of ATP by Glo-luminescence based microplate reader assay (reference value: 0.34 +/- 0.05 pmol/min/microg); set-up: species or system Microsome
[10] = target: ATP-dependent translocase ABCB1 (Homo sapiens, UniProt P08183, I1115Y); experiment: Negative allosteric modulator activity at human P-gp I1115Y mutant expressed in HEK293FT cells assessed as fold change in intracellular doxorubicin accumulation using doxorubicin as substrate at 1 uM incubated for 150 mins by microplate reader assay relative to DMSO; type: cell-based; settings: 2.5 h
[11] = target: ATP-dependent translocase ABCB1 (Homo sapiens, UniProt P08183, T1226Y); experiment: Negative allosteric modulator activity at human P-gp T1226Y mutant expressed in HEK293FT cells assessed as increase in intracellular doxorubicin accumulation using doxorubicin as substrate at 1 uM incubated for 150 mins by microplate reader assay (reference value: 67.4 +/- 2 %); type: cell-based; settings: 2.5 h
[12] = target: ATP-dependent translocase ABCB1 (Homo sapiens, UniProt P08183, Q1193K); experiment: Negative allosteric modulator activity at human P-gp Q1193K mutant expressed in HEK293FT cells assessed as fold change in intracellular doxorubicin accumulation using doxorubicin as substrate at 1 uM incubated for 150 mins by microplate reader assay relative to DMSO; type: cell-based; settings: 2.5 h
[13] = target: T1, ATP-dependent translocase ABCB1; experiment: Negative allosteric modulator activity at human P-gp G1114V mutant expressed in HEK293FT cells assessed as fold change in intracellular doxorubicin accumulation using doxorubicin as substrate at 1 uM incubated for 150 mins by microplate reader assay relative to DMSO; type: cell-based; settings: 2.5 h
[14] = target: ATP-dependent translocase ABCB1 (Homo sapiens, UniProt P08183, I1115K); experiment: Negative allosteric modulator activity at human P-gp I1115K mutant expressed in HEK293FT cells assessed as fold change in intracellular doxorubicin accumulation using doxorubicin as substrate at 1 uM incubated for 150 mins by microplate reader assay relative to DMSO; type: cell-based; settings: 2.5 h
[15] = target: ATP-dependent translocase ABCB1 (Homo sapiens, UniProt P08183, T1226W); experiment: Negative allosteric modulator activity at human P-gp T1226W mutant expressed in HEK293FT cells assessed as increase in intracellular doxorubicin accumulation using doxorubicin as substrate at 1 uM incubated for 150 mins by microplate reader assay (reference value: 66.7 +/- 1.5 %); type: cell-based; settings: 2.5 h
[16] = target: T3, ATP-dependent translocase ABCB1 (Homo sapiens, UniProt P08183, I1115N); experiment: Negative allosteric modulator activity at human P-gp I1115N mutant expressed in HEK293FT cells assessed as increase in intracellular doxorubicin accumulation using doxorubicin as substrate at 1 uM incubated for 150 mins by microplate reader assay (reference value: 98.6 +/- 4.3 %); type: cell-based; settings: 2.5 h
T3 sequence (P08183 whole entry I1115N): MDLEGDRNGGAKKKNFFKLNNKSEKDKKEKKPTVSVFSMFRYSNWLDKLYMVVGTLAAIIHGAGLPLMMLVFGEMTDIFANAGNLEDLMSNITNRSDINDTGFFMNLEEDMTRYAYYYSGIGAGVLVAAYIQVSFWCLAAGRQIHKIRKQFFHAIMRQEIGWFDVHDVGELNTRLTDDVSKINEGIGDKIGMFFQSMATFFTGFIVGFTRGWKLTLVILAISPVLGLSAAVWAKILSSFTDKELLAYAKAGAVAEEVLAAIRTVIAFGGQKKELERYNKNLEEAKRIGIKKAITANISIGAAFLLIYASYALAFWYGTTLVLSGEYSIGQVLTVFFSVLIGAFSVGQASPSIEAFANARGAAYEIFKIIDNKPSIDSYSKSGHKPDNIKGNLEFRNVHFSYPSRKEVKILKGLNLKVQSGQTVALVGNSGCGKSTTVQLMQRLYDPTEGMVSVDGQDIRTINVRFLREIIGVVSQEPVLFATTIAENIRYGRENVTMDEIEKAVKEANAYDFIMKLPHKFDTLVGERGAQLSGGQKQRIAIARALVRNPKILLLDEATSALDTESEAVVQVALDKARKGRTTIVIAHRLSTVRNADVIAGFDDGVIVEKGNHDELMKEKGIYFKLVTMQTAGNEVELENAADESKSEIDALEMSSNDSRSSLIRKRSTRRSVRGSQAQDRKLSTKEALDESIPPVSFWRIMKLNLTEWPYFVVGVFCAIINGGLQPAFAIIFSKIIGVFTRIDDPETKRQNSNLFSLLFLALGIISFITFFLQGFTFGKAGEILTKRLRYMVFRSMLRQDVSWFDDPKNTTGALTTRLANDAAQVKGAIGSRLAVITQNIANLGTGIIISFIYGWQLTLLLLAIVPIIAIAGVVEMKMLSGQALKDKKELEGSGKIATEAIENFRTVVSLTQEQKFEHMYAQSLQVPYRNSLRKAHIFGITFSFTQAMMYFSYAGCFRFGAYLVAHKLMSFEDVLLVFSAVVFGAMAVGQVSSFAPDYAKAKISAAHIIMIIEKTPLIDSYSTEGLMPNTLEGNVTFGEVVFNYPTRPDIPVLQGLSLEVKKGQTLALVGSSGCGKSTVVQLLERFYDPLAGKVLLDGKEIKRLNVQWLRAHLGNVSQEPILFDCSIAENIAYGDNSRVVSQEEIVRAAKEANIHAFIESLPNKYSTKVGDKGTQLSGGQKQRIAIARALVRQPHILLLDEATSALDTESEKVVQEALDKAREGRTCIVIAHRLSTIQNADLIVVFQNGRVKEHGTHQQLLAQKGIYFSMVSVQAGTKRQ

[17] = target: T2, ATP-dependent translocase ABCB1; experiment: Negative allosteric modulator activity at human P-gp I1115A mutant expressed in HEK293FT cells assessed as fold change in intracellular doxorubicin accumulation using doxorubicin as substrate at 1 uM incubated for 150 mins by microplate reader assay relative to DMSO; type: cell-based; settings: 2.5 h
[18] = target: T3, ATP-dependent translocase ABCB1; experiment: Negative allosteric modulator activity at human P-gp I1115N mutant expressed in HEK293FT cells assessed as fold change in intracellular doxorubicin accumulation using doxorubicin as substrate at 1 uM incubated for 150 mins by microplate reader assay relative to DMSO; type: cell-based; settings: 2.5 h
[19] = target: ATP-dependent translocase ABCB1 (Homo sapiens, UniProt P08183, I1115F); experiment: Negative allosteric modulator activity at human P-gp I1115F mutant expressed in HEK293FT cells assessed as reversal of P-gp mediated PTX resistance by measuring sensitivity fold change incubated for 5 days by MTS assay; type: cell-based; settings: 120 h, time 5 day
[20] = target: ATP-dependent translocase ABCB1 (Homo sapiens, UniProt P08183, I1115E); experiment: Negative allosteric modulator activity at human P-gp I1115E mutant expressed in HEK293FT cells assessed as fold change in intracellular doxorubicin accumulation using doxorubicin as substrate at 1 uM incubated for 150 mins by microplate reader assay relative to DMSO; type: cell-based; settings: 2.5 h

With `O=c1cc(-c2ccc(OCCOCCNCc3ccccc3)cc2)oc2ccccc12` the fold induction at 1 h, 20 µM [1] was 1.2, the “fold change (FC)” value [2] was 8.5 and the Activity [3] was 0.57 pmol/min/µg. The Activity [4] was 102.5%, the “fold change (FC)” value [5] was 1 and the Activity [6] was 43.8%. The Activity [7] was 89.7%, the fold induction at 1 h, 20 µM [8] was 1.1 and the Activity [9] was 0.58 pmol/min/µg. The “fold change (FC)” value [10] was 1, the Activity [11] was 104% and the “fold change (FC)” value [12] was 1.3. For the same compound, the “fold change (FC)” value [13] was 1, the “fold change (FC)” value [14] was 1 and the Activity [15] was 102.4%. For the same compound, the Activity [16] was 94.1%, the “fold change (FC)” value [17] was 1 and the “fold change (FC)” value [18] was 1. The “fold change (FC)” value [19] was 15.6 and the “fold change (FC)” value [20] was 1.
